Values of other authors, collected in patent US20050032782A1, “Treatment of chronic pain associated with drug or radiation therapy” (Cypress Bioscience, Inc., priority 2003, published 2005).

Target: NMDA receptor
Settings: reported by Shuto et al.; read-out: IC50 value, NMDA receptor antagonistic properties

CCN(CC)C(=O)C1(c2ccccc2)CC1CN (stereo not shown) [milnacipran]
IC50: ~6.3 µM
